Where two headings read alike, the source gives them in different places.
Experiments:
ovine COX-2 = biological target: T1, ovine COX-2 (Ovis aries, UniProt P79208); assay: Colorimetric COX (ovine) inhibitor screening assay, COX-2; format: biochemical
T1 construct: purchased Cayman Chemical Co. 760111
T1 sequence (P79208 17-603): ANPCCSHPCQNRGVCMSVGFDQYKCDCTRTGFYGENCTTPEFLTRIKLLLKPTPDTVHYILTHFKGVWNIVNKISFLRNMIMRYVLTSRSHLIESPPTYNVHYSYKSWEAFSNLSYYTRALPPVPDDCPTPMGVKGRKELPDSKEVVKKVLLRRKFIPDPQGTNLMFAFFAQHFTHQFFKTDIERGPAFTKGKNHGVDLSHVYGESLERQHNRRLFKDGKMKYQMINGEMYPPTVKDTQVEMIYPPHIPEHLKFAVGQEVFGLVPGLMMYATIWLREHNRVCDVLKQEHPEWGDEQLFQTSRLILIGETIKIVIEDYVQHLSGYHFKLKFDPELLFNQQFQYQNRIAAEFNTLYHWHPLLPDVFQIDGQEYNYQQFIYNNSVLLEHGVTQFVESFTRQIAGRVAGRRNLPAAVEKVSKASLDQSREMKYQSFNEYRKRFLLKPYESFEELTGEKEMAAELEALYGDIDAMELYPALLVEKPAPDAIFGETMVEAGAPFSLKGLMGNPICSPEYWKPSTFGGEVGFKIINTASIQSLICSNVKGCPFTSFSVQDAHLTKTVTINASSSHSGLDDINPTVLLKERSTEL
Source text: (§1) The IC50 is the concentration of tested compounds calculated using the regression equation.

ovine COX-1 = biological target: T2, ovine COX-1 (Ovis aries, UniProt P05979); assay: Colorimetric COX (ovine) inhibitor screening assay, COX-1; format: biochemical
T2 construct: purchased Cayman Chemical Co. 760111
T2 sequence (P05979 25-600): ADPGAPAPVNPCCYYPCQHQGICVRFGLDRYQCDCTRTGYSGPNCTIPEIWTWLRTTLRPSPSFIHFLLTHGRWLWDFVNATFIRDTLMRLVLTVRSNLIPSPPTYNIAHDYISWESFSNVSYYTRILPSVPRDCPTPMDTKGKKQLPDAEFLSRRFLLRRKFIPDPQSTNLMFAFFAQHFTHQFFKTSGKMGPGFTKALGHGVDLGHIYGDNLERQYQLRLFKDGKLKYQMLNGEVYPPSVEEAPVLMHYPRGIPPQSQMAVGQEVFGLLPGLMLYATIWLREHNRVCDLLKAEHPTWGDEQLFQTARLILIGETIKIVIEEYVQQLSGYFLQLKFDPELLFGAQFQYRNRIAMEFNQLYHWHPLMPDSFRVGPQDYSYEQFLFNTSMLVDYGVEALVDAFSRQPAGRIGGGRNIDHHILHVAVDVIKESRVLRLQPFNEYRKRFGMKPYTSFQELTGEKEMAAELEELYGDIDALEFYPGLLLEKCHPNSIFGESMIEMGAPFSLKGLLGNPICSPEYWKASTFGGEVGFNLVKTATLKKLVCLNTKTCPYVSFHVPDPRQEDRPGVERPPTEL
Source text: as §1

[1] = system: carrageenan-induced rat paw edema; assay: Carrageenan-induced acute inflammation (rat paw edema); format: in vivo, Wistar albino rats; conditions: 10 mg/kg p.o.
Description: The acute anti-inflammatory activity of EAFMB was evaluated using the carrageenan-induced rat paw edema model. Experimental animals were randomly divided into four groups, with six animals in each group. Group I (the control group) received a vehicle (1% CMC). […] Groups III and IV (test group) were given EAFMB at 100 and 200 mg/kg p.o doses, respectively. The drugs were administered orally 1 h before the carrageenan injection. The 0.1 mL of freshly prepared carrageenan suspension was injected into the left hind paw of each rat. The paw volume was measured using a Plethysmometer (Ugo Basile 2470, Italy) at 1, 2, 3, 4, 5, and 6 h after carrageenan administration. The results were expressed as a percentage of the increase in paw swelling and a percentage of the inhibition of paw swelling compared to the initial hind paw thickness. % Increase in Paw Volume =Final Paw Volume at specific time point − Intial Paw Volume at 0 h/Intial Paw Volume at 0 h×100 % Inhibition=Paw Volume at of Control − Paw Volume of treated group/Intial Paw VoluPaw Volume at of Control me at 0 h×100

[2] = system: CFA-induced rat paw edema; assay: CFA-induced chronic inflammation (rat paw oedema); format: in vivo, Wistar rats; conditions: 10 mg/kg p.o. once daily
Description: (§2) The chronic anti-inflammatory activity of EAFMB was evaluated using the CFA-induced rat paw edema model. Wistar rats of either sex (180 to 200 g) were randomly divided into four groups, each comprising six animals. The control group (Group I) received only a vehicle (0.5% CMC, p.o.). […] Groups III to IV were treated with EAFMB (100 and 200 mg/kg, p.o., respectively) once daily for 21 days. On day 0, chronic inflammation, i.e., arthritis, was induced via injecting 0.1 mL of CFA containing 0.5% of dry heat-killed Mycobacterium tuberculosis in sterile paraffin oil into the sub-plantar region in the left hind paw of rats. The animals were evaluated for the following parameters: • % of a rise or inhibition of oedema
After the CFA injection, the paw oedema was measured using a plethysmograph on day 0 and thereafter on days 4, 8, 14, and 21. The results were expressed as the percent rise in and percent inhibition of paw oedema as per the formulae mentioned in the acute inflammation study. • Hematological Parameters

[3] = system: CFA-induced chronic inflammation rats; assay: Hematological parameters in CFA-induced chronic inflammation; format: in vivo, Wistar rats; conditions: 10 mg/kg p.o. once daily for 21 days; blood on 21st day
Description: as §2
On the 21st day, blood was withdrawn through a retro-orbital plexus puncture from all treated groups under light ether anesthesia. The hematological parameters like hemoglobin content, total WBC count, ESR, and RBC were analyzed using Yumizen H550, HORIBA Hematology Analyzer, France.

With O=C(O)C=Cc1ccc(O)cc1 [P-hydroxycinnamic acid, p-hydroxycinnamic acid] the IC50 (ovine COX-2; ovine COX-2, colorimetric, TMPD 590 nm, read-out: COX Inhibition (IC50) COX-2) was 246 µM and the IC50 (ovine COX-1; ovine COX-1, colorimetric, TMPD 590 nm, read-out: COX Inhibition (IC50) COX-1) was 229 µM.
In the case of COc1ccc2c(c1)c(CC(=O)O)c(C)n2C(=O)c1ccc(Cl)cc1 [Indomethacin, indomethacin], the “% Inhibition of paw oedema” value ([1]; 1 h after carrageenan) is reported as 27.78%, the “% Rise in Paw Oedema” value ([1]; 1 h after carrageenan) is reported as 14.28 ± 0.42% and the “% Inhibition of paw oedema” value ([1]; 2 h after carrageenan) is reported as 56.84%. The “% Rise in Paw Oedema” value ([1]; 2 h after carrageenan) was 15.85 ± 0.41%, the “% Inhibition of paw oedema” value ([1]; 3 h after carrageenan) was 57.97% and the “% Rise in Paw Oedema” value ([1]; 3 h after carrageenan) was 18.19 ±0.36%. For the same compound, the “% Inhibition of paw oedema” value ([1]; 4 h after carrageenan) was 59.39%, the “% Rise in Paw Oedema” value ([1]; 4 h after carrageenan) was 21.01 ± 0.51% and the “% Inhibition of paw oedema” value ([1]; 5 h after carrageenan) was 54.37%. The “% Rise in Paw Oedema” value ([1]; 5 h after carrageenan) was 26.18 ± 0.63%, the “% Inhibition of paw oedema” value ([1]; 6 h after carrageenan) was 48.18% and the “% Rise in Paw Oedema” value ([1]; 6 h after carrageenan) was 31.2 ± 0.81%. For the same compound, the “% Inhibition of paw oedema” value ([2]; 4th day after CFA) was 46.78%, the “% Rise in Paw Oedema” value ([2]; 4th day after CFA) was 41.92 ± 1.46% and the “% Inhibition of paw oedema” value ([2]; 8th day after CFA) was 70.16%. The “% Rise in Paw Oedema” value ([2]; 8th day after CFA) was 27.95 ± 1.58%, the “% Inhibition of paw oedema” value ([2]; 14th day after CFA) was 84.48% and the “% Rise in Paw Oedema” value ([2]; 14th day after CFA) was 14.77 ± 1.39%. For the same compound, the “% Inhibition of paw oedema” value ([2]; 21st day after CFA) was 87.35%, the “% Rise in Paw Oedema” value ([2]; 21st day after CFA) was 11.99 ± 0.89% and the ESR [3] was 5.42 ± 0.31 mm/h. For the same compound, the Hb [3] was 14.62 ± 0.27 g%, the RBC [3] was 9.58 ± 0.27 millions/cubic mm and the WBC [3] was 6.37 ± 0.36 *** 10^3/cubic mm.
Work on Oc1cc(O)c2c(c1)OC(c1ccc(O)c(O)c1)C(O)C2 (stereo not shown) [Catechin, catechin] yielded an IC50 (ovine COX-2) of 50.4 µM and an IC50 (ovine COX-1) of 9.02 µM.

From article PMC10538222, “Isolation and Characterization of Anti-Inflammatory Compounds from Ficus microcarpa L.f. Stem Bark” (Plants, 2023)
